Measurements as given in US5183906A, “2- and 5-alkyl and phenyl substituted 4-(1-hydroxy, 1-acyloxy or 1-carbamoyloxy)-5-hydroxy-2 (5H)-furanones as anti-inflammatory agents” (Allergan, Inc., priority 1991, dated 1993).
Read-outs that look alike come from different tables or passages of the source.

Assays:
Calcium^2+ Channel = Calcium^2+ Channel Mobilization Inhibition Assay; type: cell-based; details: cell type not stated
Procedure: Polymorphonuclear leukocytes (PMNa), gastric glands, GH3 cells, A431 cells, spleen cells, human keratinocytes corneal cells, etc. were loaded with the Ca^2+ sensitive fluorescent dye, Fura-2. The appropriate cell type was chosen and the potency and efficacy of the anti-inflammatory furanones on calcium mobilization, calcium channel inhibition was quantitated. The methods used for A431 cells listed below are representative of those used for other cells.
A431 cells were detached using a 5-10 min trypsin-EDTA treatment whereas GH3 cells were treated 2 to 5 min with a 1% pancreatin solution. Cells were immediately washed twice in a 20 mM HEPES buffer (pH 7.4) containing 120 mM NaCl, 6 mM KCl, 1 mM MgSO4, 1 mg/ml glucose and 1 mg/ml pyruvate and 1.4 mM calcium (medium A). Approximately 5×10^6 cells were suspended in medium A and incubated with 4uM fura-2-AM for 15 min at 37° C.
After washing the fura-2 loaded cells, the uptake of dye was checked using fluorescence microscopy and found to be evenly distributed in the cytosol of all cells. Fluorescence was continuously recorded with a Perkin-Elmer LS-5 spectrofluorometer. The excitation wavelength was set at 340 nm and emission wavelength set at 500 nm. The cell suspension was continually stirred, maintained at 37° C. and equilibrated for approximately 5 min before addition of various agents. [Ca^2+ i was calculated using the following formula: [formula]
All fluorescence values were measured relative to a EGTA-quenched signal determined as follows: F was the relative fluorescence measurement of the sample. Fmax was determined by lysing the cells with digitonin (100 ug/ml) in DMSO. After Fmax was determined the pH was adjusted to 8, with NaOH and Ca^2+ chelated with 3 mM EGTA to totally quench the fura-2 signal and obtain Fmin.
When quin-2- was used, cells were incubated with 10 uM quin-2- at 37° C. for 1 hour, washed and then used.

[1] = target: bee venom phospholipase A2 (Apis mellifera, UniProt P00630); assay: biochemical; details: pH 7.4
[2] = KCl induced, read-out: IC50, Calcium^2+ Channel Mobilization Inhibition Assay, KCl induced
[3] = TRH induced, read-out: IC50, Calcium^2+ Channel Mobilization Inhibition Assay, TRH induced

bee venom phospholipase A2, sequence (P00630 34-167 limits assumed): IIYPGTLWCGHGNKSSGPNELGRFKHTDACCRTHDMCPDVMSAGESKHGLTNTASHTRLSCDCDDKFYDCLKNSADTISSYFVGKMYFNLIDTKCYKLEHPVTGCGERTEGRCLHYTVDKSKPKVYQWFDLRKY

Row | Structure (SMILES) | IC50 (Calcium^2+ Channel; [2]) | IC50 (Calcium^2+ Channel; [3]) | IC50 [1]
1 | CCCCCCCCCCCCC(OC(C)=O)C1=CC(=O)OC1(C)O (stereo not shown) [Compound 1, 4-(1-Acetoxytridecyl)-5-hydroxy-5-methyl-2-furanone] | 7000 nM | 2500 nM | 
2 | CC1=C(CC/C(C)=C/CCC2=CCC(C3=CC(=O)OC3O)OC2O)C(C)(C)CCC1 (stereo not shown) [manoalide, reference compound] | 800 nM | 600 nM | 
3 | CCCCCCCCCCCCC(OC(C)=O)C1=C(C)C(=O)OC1O (stereo not shown) [Compound 2, 4-(1-Acetoxytridecyl)-3-methyl-5-hydroxy-2(5H)-furanone] |  |  | > 1000 nM
4 | CCCCCCCCCCCCC(OC(=O)Nc1ccccc1)C1=CC(=O)OC1(C)O (stereo not shown) [Compound 4, 5-Methyl-5-hydroxy-4-(1-phenylcarbamoyloxy)tridecyl-2-furanone] | 800 nM | 500 nM | 
